Values quoted from earlier work as cited in US7785578B2, “Non-invasive ocular drug delivery” (Aciont, Inc., priority 2002, dated 2010).

Details: following a 5 mg peribulbar injection; comparable to a high oral dose (approximately 7.5 mg)

C[C@@H]1C[C@H]2[C@@H]3CCC4=CC(=O)C=C[C@]4(C)[C@@]3(F)[C@@H](O)C[C@]2(C)[C@@]1(O)C(=O)CO [dexamethasone]
systemic levels in plasma: 60 ng/mL
